Settings: Liquid; for speed of sound: Pulse-echo method; for mass density: Vibrating tube method

CCCCCCCCCCCCCCCCCCc1ccccc1 [octadecylbenzene]
Settings	mass density [kg/m3]	speed of sound [m/s]
313.15 K, 100 kPa	840.55	1392.9
313.15 K, 5000 kPa	843.37	–
313.15 K, 10000 kPa	846.27	1439.6
313.15 K, 15000 kPa	849.15	–
313.15 K, 20000 kPa	–	1484.1
313.15 K, 25000 kPa	854.46	–
313.15 K, 30000 kPa	856.89	1525.8
313.15 K, 35000 kPa	859.36	–
313.15 K, 40000 kPa	861.48	1564.8
313.15 K, 45000 kPa	864.12	–
313.15 K, 50000 kPa	866.37	1602.4
313.15 K, 55000 kPa	868.59	–
313.15 K, 60000 kPa	870.16	1638.1
313.15 K, 70000 kPa	–	1672.1
313.15 K, 80000 kPa	–	1704.7
323.15 K, 100 kPa	833.94	1357.8
323.15 K, 5000 kPa	836.91	–
323.15 K, 10000 kPa	840.02	1406.8
323.15 K, 15000 kPa	842.88	–
323.15 K, 20000 kPa	–	1452.4
323.15 K, 25000 kPa	848.32	–
323.15 K, 30000 kPa	850.96	1495.5
323.15 K, 35000 kPa	853.46	–
323.15 K, 40000 kPa	856	1535.6
323.15 K, 45000 kPa	858.41	–
323.15 K, 50000 kPa	860.91	1574
323.15 K, 55000 kPa	863.12	–
323.15 K, 60000 kPa	865.36	1610.3
323.15 K, 70000 kPa	–	1645.1
323.15 K, 80000 kPa	–	1678.7
323.15 K, 90000 kPa	–	1710.4
323.15 K, 100000 kPa	–	1741.3
323.15 K, 110000 kPa	–	1771.2
323.15 K, 120000 kPa	–	1799.2
333.15 K, 100 kPa	827.32	1325.5
333.15 K, 5000 kPa	830.4	–
333.15 K, 10000 kPa	833.56	1374.8
333.15 K, 15000 kPa	836.59	–
333.15 K, 20000 kPa	–	1422.6
333.15 K, 25000 kPa	842.3	–
333.15 K, 30000 kPa	845.04	1466.1
333.15 K, 35000 kPa	847.71	–
333.15 K, 40000 kPa	850.3	1507.5
333.15 K, 45000 kPa	852.76	–
333.15 K, 50000 kPa	855.26	1546.7
333.15 K, 55000 kPa	857.46	–
333.15 K, 60000 kPa	859.86	1583.5
333.15 K, 70000 kPa	–	1619.1
333.15 K, 80000 kPa	–	1652.8
333.15 K, 90000 kPa	–	1685.7
333.15 K, 100000 kPa	–	1717
333.15 K, 110000 kPa	–	1747.3
333.15 K, 120000 kPa	–	1775.7
333.15 K, 130000 kPa	–	1803.9
333.15 K, 140000 kPa	–	1830.9
333.15 K, 150000 kPa	–	1857.5
343.15 K, 100 kPa	820.78	1292.7
343.15 K, 5000 kPa	824.1	–
343.15 K, 10000 kPa	827.33	1344.1
343.15 K, 15000 kPa	830.48	–
343.15 K, 20000 kPa	–	1392.8
343.15 K, 25000 kPa	836.54	–
343.15 K, 30000 kPa	839.35	1437.7
343.15 K, 35000 kPa	841.97	–
343.15 K, 40000 kPa	844.62	1480.2
343.15 K, 45000 kPa	847.32	–
343.15 K, 50000 kPa	849.82	1519.9
343.15 K, 55000 kPa	852.25	–
343.15 K, 60000 kPa	854.6	1558.1
343.15 K, 70000 kPa	–	1594.2
343.15 K, 80000 kPa	–	1628.6
343.15 K, 90000 kPa	–	1661.5
343.15 K, 100000 kPa	–	1693.1
343.15 K, 110000 kPa	–	1723.6
343.15 K, 120000 kPa	–	1753.5
343.15 K, 130000 kPa	–	1781.9
343.15 K, 140000 kPa	–	1809.4
343.15 K, 150000 kPa	–	1836.3
353.15 K, 100 kPa	814.1	1260.7
353.15 K, 5000 kPa	817.72	–
353.15 K, 10000 kPa	821.14	1313.4
353.15 K, 15000 kPa	824.47	–
353.15 K, 20000 kPa	–	1364.1
353.15 K, 25000 kPa	830.64	–
353.15 K, 30000 kPa	833.58	1410
353.15 K, 35000 kPa	836.52	–
353.15 K, 40000 kPa	839.12	1454
353.15 K, 45000 kPa	841.72	–
353.15 K, 50000 kPa	844.35	1494.4
353.15 K, 55000 kPa	846.91	–
353.15 K, 60000 kPa	849.39	1532.6
353.15 K, 70000 kPa	–	1569.2
353.15 K, 80000 kPa	–	1604.3
353.15 K, 90000 kPa	–	1638.2
353.15 K, 100000 kPa	–	1670.3
353.15 K, 110000 kPa	–	1701.4
353.15 K, 120000 kPa	–	1731.3
353.15 K, 130000 kPa	–	1759.9
353.15 K, 140000 kPa	–	1788.8
353.15 K, 150000 kPa	–	1815.1
363.15 K, 100 kPa	807.7	1229.5
363.15 K, 5000 kPa	811.19	–
363.15 K, 10000 kPa	814.87	1284.8
363.15 K, 15000 kPa	818.14	–
363.15 K, 20000 kPa	–	1334.9
363.15 K, 25000 kPa	824.7	–
363.15 K, 30000 kPa	827.83	1382.7
363.15 K, 35000 kPa	830.62	–
363.15 K, 40000 kPa	833.38	1427.1
363.15 K, 45000 kPa	836.17	–
363.15 K, 50000 kPa	838.78	1469.1
363.15 K, 55000 kPa	841.42	–
363.15 K, 60000 kPa	843.92	1508.3
363.15 K, 70000 kPa	–	1545.7
363.15 K, 80000 kPa	–	1581.7
363.15 K, 90000 kPa	–	1615.7
363.15 K, 100000 kPa	–	1648.3
363.15 K, 110000 kPa	–	1679.8
363.15 K, 120000 kPa	–	1710
363.15 K, 130000 kPa	–	1739.2
363.15 K, 140000 kPa	–	1767.5
363.15 K, 150000 kPa	–	1795.5
373.15 K, 100 kPa	800.89	1198.7
373.15 K, 5000 kPa	804.86	–
373.15 K, 10000 kPa	808.59	1255.2
373.15 K, 15000 kPa	812.16	–
373.15 K, 20000 kPa	–	1308.3
373.15 K, 25000 kPa	818.84	–
373.15 K, 30000 kPa	821.97	1356.6
373.15 K, 35000 kPa	825.09	–
373.15 K, 40000 kPa	828	1401.7
373.15 K, 45000 kPa	830.8	–
373.15 K, 50000 kPa	833.6	1444.5
373.15 K, 55000 kPa	836.29	–
373.15 K, 60000 kPa	838.88	1484.7
373.15 K, 70000 kPa	–	1522
373.15 K, 80000 kPa	–	1558.6
373.15 K, 90000 kPa	–	1592.9
373.15 K, 100000 kPa	–	1626.3
373.15 K, 110000 kPa	–	1657.9
373.15 K, 120000 kPa	–	1688.5
373.15 K, 130000 kPa	–	1718.7
373.15 K, 140000 kPa	–	1746.6
373.15 K, 150000 kPa	–	1774.6

— the NIST ThermoML archive (doi:10.1021/je049973v)
